The results in this text go back to patent US20100256145A1, “USE OF KCNQ POTASSIUM CHANNEL OPENERS FOR REDUCING SYMPTOMS OF OR TREATING DISORDERS OR CONDITIONS WHEREIN THE DOPAMINERGIC SYSTEM IS DISRUPTED” (H. LUNDBECK A/S, priority 2007, published 2010).

Marks after values point to notes of the source that are not given here.

Assay [1] deals with dopaminergic neurons in the ventral tegmental area. Description: Spontaneous DA cell firing in the VTA of anaesthetised rats (extracellular single-cell recordings). The note with it: mean ± SEM.
Protocol: Subjects. Male Wistar rats (Harlan, The Netherlands) weighing 270-340 g are used. The animals are housed under a 12-hr light/dark cycle under controlled conditions for regular in-door temperature (21±2° C.) and humidity (55±5%) with food and tap water available ad libitum.
Administration of compound. […] These i.v. doses match the s.c. dose range of 0-10 mg/kg.
Statistical analysis. Drug effects are assessed by statistical comparison of the mean firing rate calculated from the 2-3 min period immediately before the first drug administration (baseline) to the mean firing rate calculated from at least 60 s at the maximal drug effect. Data are analysed statistically by a one-way analysis of variance (ANOVA) followed by Student-Newman-Keuls post hoc test. A p-value less than 0.05 is considered significant.
For assay [2], the system named is extracellular DA levels in the nucleus accumbens. The experiment in a line: Microdialysis: amphetamine-evoked DA levels in the nucleus accumbens of freely moving rats. Format: in vivo, rat. The note with it: for Normalised DA level in the nucleus accumbens: compound 8.1 mg/kg s.c., D-amphetamine 0.5 mg/kg s.c. 30 min later. Here is the method:
Subjects. Male Sprague-Dawley rats (Charles River), initially weighing 275-300 g, are used.
Surgery. Animals are anaesthetized with hypnorm/dormicum (2 ml/kg s.c.) and intracerebral guide cannulas (CMA/12) are stereotaxically implanted, positioning the dialysis probe tip in the nucleus accumbens (co-ordinates: 1.7 mm anterior to bregma, −1.2 mm lateral to bregma, 8.0 mm ventral to the dura). Anchor screws and acrylic cement is applied for fixation of the guide cannula. The body temperature of the animals is maintained at 37° C. by means of a rectal probe and a heating plate. The rats are allowed to recover from surgery for 2 days, housed singly in cages.
Experimental procedure. On the day of the experiment, a microdialysis probe (CMA/12, 0.5 mm diameter, 2 mm length) is inserted through the guide cannula of the conscious animal. The probes are connected to a microinjection pump via a dual channel swivel which allowed the animals unrestricted movements. Perfusion of the microdialysis probe with filtered Ringer solution (145 mM NaCl, 3 mM KCl, 1 mM MgCl2, 1.2 mM CaCl2) is maintained for the duration of the experiment at a constant flow rate of 1 μL/min. After 180 min of stabilisation, the experiments are initiated. Dialysates are collected every 20 min. After the experiments the rats are sacrificed by decapitation, their brains removed, frozen and sliced for probe placement verification.
Administration of compounds. […] Thirty minutes later, D-amphetamine sulphate (0.5 mg/kg s.c.) is administered.
Analysis of dialysate. The concentration of DA in the dialysates is assessed by means of HPLC with electrochemical detection. The dialysate constituents are separated by reverse phase liquid chromatography (ODS 150×3 mm, […]). Mobile phase consists of 90 mM NaH2PO4, 50 mM sodium citrate, 367 mg/l sodium 1-octanesulfonic acid, 50 μM EDTA and 8% acetonitrile (pH 4.0) at a flow rate of 0.5 ml/min. Electrochemical detection of DA is accomplished using a coulometric detector; potential set at E1=−75 mV and E2=300 mV (guard cell at 350 mV) (Coulochem II, ESA). The dialysate levels of DA in the three dialyse samples preceding the administration of compound are averaged and used as baseline level of DA (100%)
Statistical analysis. The dialysate levels of DA in the three dialyse samples preceding the administration of compound are averaged and used as baseline level of DA (100%). Data are analysed using repeated measure analyses of variance followed by post hoc tests (Tukey test), when appropriate. *P<0.05 were considered significant.

Assay [3] has as its system choice of the large-but-delayed reward (impulsivity). The experiment in a line: Rat T-maze procedure: large-but-delayed vs small-but-immediate reward. Format: in vivo. As to conditions: juvenile Wistar rats. The protocol:
Subjects. male Wistar AF rats (28-41 days old) (Centre d′Elevage René Janvier, France) were used. […] During the whole study, tap water was provided ad libitum. Food was restricted to 5-10 g/day/animal in order to maintain animals at 65-75% of their free feeding weight
Experimental procedure. The experiments were performed in two identical T-maze apparatus constructed from opaque grey plastic tubing and consisting of a starting runway (30 cm long) and two arms (35 cm long) each leading to a rectangular black plastic goal box (18 cm large, 30 cm wide, 10 cm high). Removable grey plastic guillotine doors could be inserted into the vertical clefts, situated at the entry of the starting runway and at each end of the arms. One of the goal-boxes (left or right, depending on the rats) was constantly provided with a large reward, the other with a small reward. Large and small rewards consisted, respectively, of 5 and 1 pellets (20 mg, Technical & Scientific Equipment GmbH, Germany). The pellets were placed in a translucent food-cup before each trial.
First phase: habituation. Animals were first subjected to two 5-min sessions of habituation. The rat was gently introduced in the starting runway, which then was closed with a guillotine door inserted in the cleft (referred to as c0 in FIG. 1). The animal was allowed to freely explore the apparatus and to eat food rewards placed in the food cups.
Second phase: pretraining. After a door was placed in the cleft c2 near each goal-box, the rat was introduced in the starting runway. When it entered one of the two arms, a door was inserted behind it in the cleft c1 near the choice area and the door placed in cleft c2 was removed. As soon as the animal entered the goal-box, the door was placed again in the cleft c2. The rat was removed from the goal-box as soon as the pellets were eaten (usually within less than 1 min). The animal was then returned to its home cage for an intertrial interval of 2 to 3 min. Each rat was submitted one to five times/day to five trials sessions in this procedure. Training was initiated when the rat selected the arm giving access to the large reward in more than 14 out of 15 trials.
Third phase: training. Rats underwent one to five times/day five trials training sessions during which a delay was introduced before access to the large reward. After a door was placed in the cleft c2 near each goal-box, the rat was introduced in the starting runway. When it entered one of the two arms, a second door was inserted behind it in the cleft c1 near the choice area, so that rat selecting the arm leading to the large reward could be detained in this arm for a period (referred to as the waiting delay) before having access to the reinforcement. Otherwise, if the animal selected the arm leading to the small reward, the door placed in the cleft c2 was immediately opened, allowing the animal to enter the goal-box. At the beginning of training, the waiting delay was 30 sec. Then, if the percentage of choices of the large and delayed reward remained high (i.e. ≧40%) for more than six sessions, it was increased to 45 sec, and if necessary to 60 sec, 90 sec and finally 120 sec. Drug testing began when the animal selected the large and delayed reward in two trials out of five (or less) in two consecutive sessions and in one trial out of five (or less) in the following session.
Drug testing was conducted over six consecutive test-sessions of five trials each, during which the access to the large reward was preceded by the waiting delay. Test sessions were: Two control pre-drug sessions: control pre-drug session 1 and control pre-drug session 2; Two drug sessions: drug session 1 and drug session 2; Two control post-drug sessions: control post-drug session 1 and control post-drug session 2.

As to `CCOC(=O)Nc1ccc(NCc2ccc(F)cc2)cc1N` [Compound 1, reference compound], the “Spontaneous DA cell firing rate in the VTA” value is recorded as 95.4 ± 5.0 (4) percentage of baseline firing rate in assay [1] (cumulated dose 0.3 mg/kg i.v.); 90.5 ± 4.6 (5) percentage of baseline firing rate in assay [1] (cumulated dose 1.0 mg/kg i.v.); 81.1 ± 5.1 (5) percentage of baseline firing rate in assay [1] (cumulated dose 2.0 mg/kg i.v.); 67.1 ± 3.7 (4) percentage of baseline firing rate in assay [1] (cumulated dose 4.0 mg/kg i.v.); 60.6 ± 0.7 (2) percentage of baseline firing rate in assay [1] (cumulated dose 6.0 mg/kg i.v.). The “Normalised DA level in the nucleus accumbens” value is listed as 96 ± 6 % of baseline in assay [2] (Time 0 min (baseline sample)); 160 ± 11 % of baseline in assay [2] (Time 20 min); 241 ± 33 % of baseline in assay [2] (Time 40 min); 221 ± 26* % of baseline in assay [2] (Time 60 min); 217 ± 14* % of baseline in assay [2] (Time 80 min); 173 ± 9 % of baseline in assay [2] (Time 100 min). The “Normalised DA level in the nucleus accumbens” value in assay [2] (Time 120 min) is given as 139 ± 9 % of baseline; in assay [2] (Time 140 min), 120 ± 9 % of baseline; in assay [2] (Time −20 min (baseline sample)), 99 ± 6 % of baseline; in assay [2] (Time −40 min (baseline sample)), 105 ± 3 % of baseline. Moreover, in assay [2] (without amphetamine, data not shown), the “Effect on the basal extracellular DA level in the nucleus accumbens” value is given as “None of the latter three compounds significantly affects the basal extracellular DA level”. Moreover, the “% Choice of the large but delayed reward on Drug sessions” value in assay [3] (5 mg/kg s.c. 30 min before the test) came to 26.7 ± 3.3 %. The “% Choice of the large but delayed reward on Control sessions” value in assay [3] (placebo administered before control (pre-drug and post-drug) sessions of the same group) stood at 10.8 ± 2.0%.
